# Measured values as given in patent US20240252527A9, “NUCLEOSIDE DRUGS FOR THE TREATMENT OR PREVENTION OF CORONAVIRUS INFECTION AND THEIR USES” (Miracure Biotechnology Limited, priority 2022, published 2024).
# Like-named read-outs stand apart in the source and are kept apart here.
# Experiments:
# [1] = tested on: 229E; assay: 229E MRC5 CPE assay (cytopathic experiment); type: cell-based, coronavirus 229E (HCoV-229E)
# [2] = tested on: OC43; assay: OC43 Huh7 CPE assay (cytopathic experiment); type: cell-based, coronavirus OC43 (HCoV-OC43); details: for EC50: read-out: OC43 Huh7 CPE assay (μM) EC50; for EC90: read-out: OC43 Huh7 CPE assay (μM) EC90
# In short: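 Cells seeded overnight, then two-fold diluted compound added with virus; viability read by CellTiter-Glo after 3 days (229E, MRC5 cells) or 7 days (OC43, Huh7 cells). EC50/EC90 from % inhibition of virus-induced CPE; CC50 from parallel uninfected cytotoxicity runs, by nonlinear fitting.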
# [3] = Human coronavirus 229E, MRC5, 72 h, read-out: 229E MRC5 CPE assay (μM) EC50
# [4] = Human coronavirus 229E, MRC5, 72 h, read-out: 229E MRC5 CPE assay (μM) EC90
# [5] = Betacoronavirus 1, OC43, Huh-7, 168 h
# [6] = Human coronavirus 229E, MRC5, 72 h; read-out: 229E MRC5 CPE assay (μM) EC50
# [7] = Human coronavirus 229E, MRC5, 72 h; read-out: 229E MRC5 CPE assay (μM) EC90
# [8] = Betacoronavirus 1, Huh-7, 168 h, Huh7 cells, OC43 virus, 7 days, Cell Titer Glo
SMILES,"EC50 [1, 3] [µM]","EC90 [1, 4] [µM]","EC50 [2, 5] [µM]","EC90 [2, 5] [µM]","EC50 [1, 6] [µM]","EC90 [1, 7] [µM]","EC50 [2, 8] [µM]","EC90 [2, 8] [µM]"
CCCCOC(=O)[C@H](Cc1ccccc1)N[P@@](=O)(OCOC(=O)C(CCC)CCC)OC[C@H]1O[C@@](C#N)(c2ccc3c(N)ncnn23)[C@H](O)[C@@H]1O [Compound 138],< 0.1,0.1 to 0.5,< 0.1,< 0.1,,,,
CCCC(CCC)C(=O)OCO[P@](=O)(N[C@@H](C)C(=O)OC)OC[C@H]1O[C@@](C#N)(c2ccc3c(N)ncnn23)[C@H](O)[C@@H]1O [Compound 095],< 0.1,0.1 to 0.5,< 0.1,0.1 to 0.5,,,,
N#C[C@@]1(c2ccc3c(N)ncnn23)OC2CO[P@](=O)(OCOC(=O)c3cccnc3)O[C@H]2[C@H]1O (stereo partly drawn) [Compound 179],> 0.5,> 0.5,> 0.5,> 0.5,,,,
CCOC(=O)[C@H](C)N[P@](=O)(OC[C@H]1O[C@@](C#N)(c2ccc3c(N)ncnn23)[C@H](O)[C@@H]1O)Oc1ccc(Nc2ccnc3cc(Cl)ccc23)cc1CN(CC)CC [Compound 088],,,,,> 0.5,> 0.5,> 0.5,> 0.5
CCC(CC)COC(=O)[C@H](C)N[P@](=O)(OCCN(CC)CCCC(C)Nc1ccnc2cc(Cl)ccc12)OC[C@H]1O[C@@](C#N)(c2ccc3c(N)ncnn23)[C@H](O)[C@@H]1O (stereo partly drawn) [Compound 069],> 0.5,> 0.5,> 0.5,> 0.5,,,,
N#C[C@@]1(c2ccc3c(N)ncnn23)O[C@@H]2COP(=O)(O)O[C@H]2[C@H]1OC(=O)c1cccnc1 [Compound 181],> 0.5,> 0.5,> 0.5,> 0.5,,,,
CCC(CC)COC(=O)[C@H](C)NP(=O)(OC[C@H]1O[C@@](C#N)(c2ccc3c(N)ncnn23)[C@H](O)[C@@H]1O)Oc1cc(N)ccc1C(=O)OC (stereo partly drawn) [Compound 128],,,,,> 0.5,> 0.5,> 0.5,> 0.5
N#C[C@@]1(c2ccc3c(N)ncnn23)O[C@@H]2CO[P@@](=O)(OCOC(=O)C3CCCC3)O[C@H]2[C@H]1O [Compound 262],0.1 to 0.5,> 0.5,> 0.5,> 0.5,,,,
CCC(CC)COC(=O)[C@H](C)N[P@](=O)(OC[C@H]1O[C@@](C#N)(c2ccc3c(N)ncnn23)[C@H](O)[C@@H]1O)Oc1ccc(Nc2ccnc3cc(Cl)ccc23)cc1CN(CC)CC [Compound 062],,,,,> 0.5,> 0.5,> 0.5,> 0.5
CCCN(CCC)S(=O)(=O)c1ccc(C(=O)OCO[P@]2(=O)OCC3O[C@@](C#N)(c4ccc5c(N)ncnn45)[C@H](O)[C@@H]3O2)cc1 (stereo partly drawn) [Compound 157],0.1 to 0.5,> 0.5,> 0.5,> 0.5,,,,
CCCN(CCC)S(=O)(=O)c1ccc(C(=O)OCO[P@@](=O)(N[C@@H](C)C(=O)OCC(CC)CC)OC[C@H]2O[C@@](C#N)(c3ccc4c(N)ncnn34)[C@H](O)[C@@H]2O)cc1 [Compound 161],> 0.5,> 0.5,> 0.5,> 0.5,,,,
CC(C)(C)C(=O)O[C@@H]1[C@@H]2O[P@](=O)(O)OC[C@H]2O[C@@]1(C#N)c1ccc2c(N)ncnn12 [Compound 200],> 0.5,> 0.5,> 0.5,> 0.5,,,,
CCCC(CCC)C(=O)OCO[P@@](=O)(OC[C@H]1O[C@@](C#N)(c2ccc3c(N)ncnn23)[C@H](O)[C@@H]1O)Oc1cccc2ccccc12 [Compound 224],,,> 0.5,> 0.5,> 0.5,> 0.5,,
CC(C)OC(=O)C(C)(C)N[P@](=O)(OCOC(=O)CCCc1ccccc1)OC[C@H]1O[C@@](C#N)(c2ccc3c(N)ncnn23)[C@H](O)[C@@H]1O [Compound 270],> 0.5,> 0.5,> 0.5,> 0.5,,,,
CCC(CC)COC(=O)[C@H](C)NP(=O)(OCC(=O)OC(C)C)OC[C@H]1O[C@@](C#N)(c2ccc3c(N)ncnn23)[C@H](O)[C@@H]1O (stereo partly drawn) [Compound 103],> 0.5,> 0.5,> 0.5,> 0.5,,,,
